The subject of one series is SAH hydrolase. Conditions: cited from earlier work; for Ki: De Clercq & Cools (1985).
For series [1], the system named is tumor-derived methionine adenosyltransferases. The conditions noted are these: cited from earlier work.
In the next series the test system is tRNA methylases. Conditions: cited from earlier work.
Series [2] concerns RNA methyltransferase from Streptomyces antibioticus. The conditions noted are these: 100 μM; cited from earlier work.
The subject of a further series is SAHH hydrolase. Conditions: cited from earlier work.
Series [3] has as its system S. aureus 27660 (erythromycin resistant). The format is cell-based. Conditions: in combination with erythromycin.
Series [4] deals with vesicular stomatitis virus. The conditions noted are these: primary rabbit kidney cells; cited from earlier work.
The subject of another series is human retrovirus. The conditions noted are these: cited from earlier work.
The test system of series [5] is vaccinia virion mRNA(guanine-7)methyltransferase. Conditions: 100 μM; cited from earlier work.
For the next series, the system named is adenosine deaminase. The conditions noted are these: cited from earlier work.
For series [6] the following is noted: mice, cited from earlier work.
The test system of another series is SAM synthetase. The conditions noted are these: cited from earlier work.
The next series relates to L1210 cells. The conditions noted are these: absence of polyamine depletion; cited from earlier work.
The subject of a further series is GSH. The conditions noted are these: cited from earlier work; for reduction of GSH levels: 0.2 mmol/kg (S) and 0.4 mmol/kg (S,R), liver, kidney and pancreas; for depletion of GSH: 0.2 mg/kg.
In the next series the test system is methyl transfer from SAM. Conditions: cited from earlier work.

In general, inhibition refers to the drop in the measured response relative to a control, in per cent. In general, Ki refers to a dissociation constant, usually derived from enzyme kinetics or from competition with a known ligand. By IC50 is commonly meant the concentration that gives 50% inhibition.

Like-named read-outs stand apart in the source and are kept apart here.

`Nc1nc(F)nc2c1ncn2[C@@H]1O[C@H](CSCCC(N)C(=O)O)[C@@H](O)[C@H]1O` (some centres unmarked) [2-FSAH, 2-fluoro-S-adenosylhomocysteine]: in the series with SAH hydrolase, the SAH hydrolase inhibition entry is given as “effective inhibitor of SAHH”.

For `CC=CC[C@H](N)C(=O)O` [L-2-amino-4-hexanoic acid], in series [1], the inhibition result is reported as “effective inhibitors”.

In the case of `Nc1ncnc2nc[nH]c12.O=S(=O)(O)O` [adenine sulfate], the “inhibition of tRNA methylases” value in the series with tRNA methylases is on record as “gave inhibition that would be acceptable”.

Consider `Nc1ncnc2c1ncn2CC(O)C(=O)O` (racemic) [(RS)-AHPA, (R,S)-3-adenine-9-yl-2-hydroxypropanocic acid], for which, on SAH hydrolase, the inhibition constant (Ki) was 0.073 µM.

With `CNc1ncnc2[nH]cnc12` [6-methyladenine], the “inhibition of tRNA methylases” value with tRNA methylases is recorded as “gave inhibition that would be acceptable”.

For the compound `Nc1ncnc2c1ncn2C1OC(CC2CCC(N)C(=O)N2)C(O)C1O` (centres unmarked) [cyclosinefungin], the inhibition in [2] is listed as 50%.

`Nc1ncnc2c1ncn2[C@@H]1C=C[C@@H](O)[C@H]1O` [DHCeA, dihydroxycyclopentenyladenine]: the “antiviral activity and cytotoxicity vs first generation” value in the series on SAHH hydrolase was “retained antiviral activity and considerably lower cytotoxicity than their parent first generation inhibitors”.

Consider `Nc1ncnc2c1ncn2[C@H]1C[C@H](O)[C@@H](CO)O1` [2'-deoxyadenosine], for which, in [3], the “enhanced killing with erythromycin” value is reported as “enhanced the killing”. Further, the SAH hydrolase inhibition entry in the series on SAH hydrolase is “suicide inactivators of SAH hydrolase”.

Consider `Nc1nccc2c1ncn2[C@@H]1C[C@H](CO)[C@@H](O)[C@H]1O` [carbocyclic 3-deazaadenosine, carbocyclic-3-deazaadenosine], for which the Ki at SAH hydrolase is 0.013 µM. Further, the “minimum inhibitor concentration (50% reduction of cytopathogenicity)” value in series [4] is 0.2 µg/mL. The effective inhibitory concentration in the series with human retrovirus was approximately 1.4 µg/mL.

As for `Nc1ncnc2c1ncn2[C@@H]1O[C@H](C[S+]([O-])CC[C@H](N)C(=O)O)[C@@H](O)[C@H]1O` (stereo partly drawn) [S-adenosyl-L-homocysteine sulfoxide], the inhibition in [5] is listed as 47%.

With 6-methoxyadenine, in the series with tRNA methylases, the “inhibition of tRNA methylases” value was “possible exceptions”.

Consider `Nc1nc(N)c2ncn([C@@H]3C[C@H](O)[C@@H](O)[C@H]3O)c2n1` (relative stereo) [2,6-diamino-analogue], for which the SAH hydrolase inhibition entry in the series on SAH hydrolase was “inhibitors of SAHH”.

Take `Nc1nccc2c1ncn2[C@@H]1O[C@H](CSCC[C@H](N)C(=O)O)[C@@H](O)[C@H]1O` [S-(3-deazaadenosyl)-L-homocysteine]: the inhibition in series [5] is reported as 84%.

As for `OCC1NC=Nc2c1ncn2[C@@H]1O[C@H](CO)[C@@H](O)[C@H]1O` (some centres unmarked) [1,6-dihydro-6-hydroxy-methylpurine nucleoside], the ADA inhibition entry in the series with adenosine deaminase is “inhibitors of ADA”.

As for `Nc1ncnc2c1ncn2C[C@H](O)CO` [(S)-DHPA, 9(S)-(2,3-dihydroxypropyl)adenine], the inhibitory constant (Ki) on SAH hydrolase was 1.4 µM. In addition, the “minimum inhibitor concentration (50% reduction of cytopathogenicity)” value in series [4] was 20 µg/mL. Besides, the effective inhibitory concentration entry in the series on human retrovirus is “about 60 μg/ml”.

`CC1(C)N=C(N)N=C(N)N1c1ccc(CCCCc2ccc(S(=O)(=O)F)cc2Cl)c(Cl)c1` [NSC 127755]: in series [6] (s.c.), the “s.c. toxicity (LD100)” value was not below 156 mg/kg.

For `NC1(C(=O)O)CC2CC1C2` (single isomer, unassigned; (+)) [(+)-2-aminobicyclo[2.1.1]hexane-2-carboxylic acid], the SAM synthetase inhibition result with SAM synthetase was “most effective”. Besides, the inhibition result in [1] is on record as “most effective”. Moreover, the IC50 with L1210 cells is 5000 µM.

`NC(C(=O)O)C1CCCC1` (centres unmarked) [cyclopentaneglycine]: the SAM synthetase inhibition result in the series on SAM synthetase is on record as “effective inhibitors”.

Turning to `Nc1ncnc2c1ncn2[C@@H]1C[C@H](CSCC[C@H](N)C(=O)O)[C@@H](O)[C@H]1O` [S-aristeromycinyl-L-homocysteine], the inhibition in series [5] is 66%.

Turning to `CCCCS(=N)(=O)CC[C@H](N)C(=O)O` (stereo partly drawn) [L-buthionine-(S,R)-sulfoximine], the “reduction of GSH levels” value in the series with GSH is on record as “effective in reducing GSH levels”.

Consider `CCCC[S@](=N)(=O)CC[C@H](N)C(=O)O` [L-buthionine-(S)-sulfoximine], for which the “reduction of GSH levels” value in the series with GSH is reported as “effective in reducing GSH levels”.

As for `NC1(C(=O)O)CCCCC1` [1-aminocyclohexanecarboxylic acid], the inhibition entry in series [1] was “effective inhibitors”.

For `Nc1nccc2c1ncn2[C@@H]1CC[C@@H](O)[C@H]1O` [c^3 -DHCaA, dihydroxycyclopentanyl-3-deazaadenine], the “antiviral activity and cytotoxicity vs first generation” value with SAHH hydrolase is “retained antiviral activity and considerably lower cytotoxicity than their parent first generation inhibitors”.

On to `Nc1ncnc2c1ncn2[C@@H]1O[C@H](CS(=O)(=O)CC[C@H](N)C(=O)O)[C@@H](O)[C@H]1O` [S-adenosyl-L-homocysteine sulfone], for which the inhibition in series [5] is recorded as 40%.

On to `CC(C)COC(=O)C(O)Cn1cnc2c(N)ncnc21` (racemic) [(RS)-AHPA isobutyl ester], for which the “minimum inhibitor concentration (50% reduction of cytopathogenicity)” value in series [4] was 2 µg/mL. Besides, the effective inhibitory concentration in the series on human retrovirus is approximately 1.2 µg/mL. In the series on human retrovirus (in vitro cytotoxicity vs activity), the activity index was 80.

On to `C[S+](CCCN)C[C@H]1O[C@@H](n2cnc3c(N)ncnc32)[C@H](O)[C@@H]1O` (some centres unmarked) [S-adenosyl-(5')-3-methylthio-propylamine], for which the inhibition result in the series on methyl transfer from SAM is on record as “effective inhibitors”.

Turning to `N[C@]1(C(=O)O)C[C@H]2CC[C@@H]1C2` [(1R,2R,4S) isomer of 2-aminonorbornane-2-carboxylic acid, 2-aminonorbornane-2-carboxylic acid], the SAM synthetase inhibition result in the series on SAM synthetase is “effective inhibitors”.

As to `CS/C=C\[C@H](N)C(=O)O` (stereo in doubt) [L-cis-AMTB, L-2-amino-4-methylthio-cis-but-3-enoic acid], in the series with SAM synthetase, the “inhibitory potency relative to L-cis-AMB” value is recorded as “slightly less inhibitory than L-cis-AMB”.

`NC1(C(=O)O)CC2CC1C1CCCC21` [(1R,2R,4S) isomer of 2-amino-5,6-exo-trimethylenenorbornane-2-carboxylic acid, 2-amino-5,6-exo-trimethylenenorbornane-2-carboxylic acid]: the SAM synthetase inhibition result in the series with SAM synthetase is reported as “effective inhibitors”.

For `C[Se]CC[C@H](N)C(=O)O` [selenomethionine], the IC50 in the series on L1210 cells was 130 µM.

In the case of `CCSCC[C@H](N)C(=O)O` [L-ethionine], the inhibition entry in series [1] is “effective inhibitors”.

Consider `C/C(Cl)=C/C[C@H](N)C(=O)O` [(Z)-L-2-amino-5-chloro-trans-4-hexanoic acid], for which the inhibition entry in series [1] is “effective inhibitors”.

On to `NC1(C(=O)O)CC2CCC2C1` (centres unmarked) [3-aminobicyclo[3.2.0]heptane-3-carboxylic acid], for which the SAM synthetase inhibition entry in the series on SAM synthetase is “effective inhibitors”.

`NC1(C(=O)O)CCC1` [1-aminocyclobutanecarboxylic acid]: the inhibition result in [1] is listed as “effective inhibitors”.

On to `Nc1c2nc[nH]c2nc[n+]1[O-]` [adenine-N^1 -oxide], for which, in the series with tRNA methylases, the “inhibition of tRNA methylases” value is recorded as “gave inhibition that would be acceptable”.

On to 6-mercaptoadenine, for which the “inhibition of tRNA methylases” value with tRNA methylases is given as “gave inhibition that would be acceptable”.

With `CC[Se]CCC(N)C(=O)O` (racemic) [seleno-DL-ethionine], in series [1], the inhibition result was “effective inhibitors”.

As for `CSCSC[C@H]1O[C@@H](n2cnc3c(N)ncnc32)[C@H](O)[C@@H]1O` [5'-S-methylthiomethyladenosine], the inhibition in [2] is listed as 65%.

Regarding `Nc1ncnc2c1ncn2[C@@H]1CC[C@@H](O)[C@H]1O` [DHCaA, dihydroxycyclopentanyladenine], the “antiviral activity and cytotoxicity vs first generation” value in the series on SAHH hydrolase is “retained antiviral activity and considerably lower cytotoxicity than their parent first generation inhibitors”.

Regarding `CN(C)c1ncnc2[nH]cnc12` [6-dimethyladenine], the “inhibition of tRNA methylases” value with tRNA methylases is “possible exceptions”.

As to `CCCC[S@@](=N)(=O)CC[C@H](N)C(=O)O` [L-buthionine-(R)-sulfoximine], the “depletion of GSH” value was “modest depletion in the kidney” in the series on GSH (kidney) and “did not show any significant depletion of GSH” in the series with GSH (liver or pancreas).

Take `C[S+](CC[C@H](N)C(=O)O)C[C@H]1O[C@@H](n2cnc3c(=O)[nH]cnc32)[C@H](O)[C@@H]1O` (stereo partly drawn) [S-inosyl-L-methionine]: the inhibition entry in the series with methyl transfer from SAM was “effective inhibitors”.

For the compound `Nc1ncnc2nc[nH]c12.O=P(O)(O)O` [adenine phosphate], the “inhibition of tRNA methylases” value in the series on tRNA methylases is “gave inhibition that would be acceptable”.

Regarding `Nc1ncnc2c1ncn2[C@@H]1O[C@H](CO)[C@@H](O)[C@@H]1O` [Ara-A, 9-β-arabinofuranosyladenine], the “enhanced killing with erythromycin” value in series [3] was “enhanced the killing”. For the same compound, the SAH hydrolase inhibition result with SAH hydrolase was “suicide inactivators of SAH hydrolase”. The “activity relative to 2'-deoxyadenosine” value in the series with SAH hydrolase (suicide inactivation of SAH hydrolase) is listed as “twice as active as 2'-deoxyadenosine”. The LD50 is reported as 4,677 mg/kg in series [6] (i.p.) and 7,950 mg/kg in series [6] (orally).

Turning to `Nc1nccc2c1ncn2[C@@H]1C=C[C@@H](O)[C@H]1O` [c^3 -DHCeA, dihydroxycyclopentenyl-3-deazaadenine], the “antiviral activity and cytotoxicity vs first generation” value in the series on SAHH hydrolase is “retained antiviral activity and considerably lower cytotoxicity than their parent first generation inhibitors”.

The values above are taken from US5872104A, “Combinations and methods for reducing antimicrobial resistance” (Oridigm Corporation, priority 1994, dated 1999).
